Source: patent US11690816B2, “Unit doses for immediate release of GHB or of one of the therapeutically acceptable salts thereof, administered orally, and the use thereof to maintain alcohol abstinence” (DEBREGEAS ET ASSOCIES PHARMA, priority 2016, dated 2023)

Columns and labels:
[1] = patients with moderate or severe liver disease, same administered dose; cited from earlier work
[2] = AUC and CMax values dependent on the doses used; settings: human, in vivo, oral
Text: The applicant has found the following AUC and CMax values, which are dependent on the doses used, for doses of 0.37 g, 0.75 g, 1.25 g and 1.75 g: […]

[3] = tested on: alcohol-dependent patients; assay: phase IIb/III clinical trial, maintaining of alcohol abstinence (PDA, TAC, HDD); assay type: in vivo, human
Protocol: The following doses were examined: • 0.75 g sodium oxybate three times daily—i.e. 2.25 g per day (99 patients) • 1.25 g sodium oxybate three times daily—i.e. 3.75 g per day (99 patients) • 1.75 g sodium oxybate three times daily—i.e. 5.25 g per day (99 patients) • 2.25 g sodium oxybate three times daily—i.e. 6.75 g per day (100 patients) • Placebo group (99 patients)
The unit doses, packaged in sachets, were administered via oral route in solid form, more particularly in the form of granules.
Efficacy was measured via percentage days of abstinence (PDA), reduced daily intake of alcohol (TAC) and the number of heavy drinking days (HDD). It was sought to analyse the correlation between efficacy of treatment and dose in mg/kg/d. In this respect the conversion to mg/kg/d was made using the following formula: unit dose in g of sodium oxybate×3/patient weight.
In the remainder of the present description, reference is made to two categories of alcoholic patients: • patients with mild to moderate alcohol dependence; • patients with severe to very severe alcohol dependence.

| Structure (SMILES) | increase of the main pharmacokinetic parameters compared with patients not suffering from liver disease [1] | AUC(0-t) ([2]; 0.37 g dose) | Cmax ([2]; 0.37 g dose) | AUC(0-t) ([2]; 0.75 g dose) | Cmax ([2]; 0.75 g dose) | AUC(0-t) ([2]; 1.25 g dose) | Cmax ([2]; 1.25 g dose) | AUC(0-t) ([2]; 1.75 g dose) | Cmax ([2]; 1.75 g dose) | efficacy as share of the efficacy of the optimal dose ([3]; mild or moderate alcohol dependence, doses higher than 1.25 g) | unit dose of optimum efficacy (statistical models) ([3]; mildly or moderately alcohol-dependent patients without liver disease, three times daily) | side effects ([3]; severe or very severe alcohol dependence without liver disease, above 1.75 g three times daily) | optimum unit dose (polynomial regression models) ([3]; severe or very severe alcohol dependence, without liver disease, three times daily) | efficacy lower than that of the optimal dose ([3]; severe or very severe alcohol dependence, doses lower than 1.25 g or higher than 1.75 g) |
| --- | --- | --- | --- | --- | --- | --- | --- | --- | --- | --- | --- | --- | --- | --- |
| O=C(O)CCCO [gamma-hydroxybutyric acid] | over 120% | – | – | – | – | – | – | – | – | – | – | – | – | – |
| O=C(O)CCCO [sodium oxybate] | – | 14.8 µg·h/mL | 11.5 µg/mL | 30 µg·h/mL | 23 µg/mL | 50 µg·h/mL | 39 µg/mL | 70 µg·h/mL | 54.5 µg/mL | about 20% | 0.75 g | side effects become more numerous and frequent, in particular a sedative effect with nausea and marked fatigue | about 1.5 g | up to 80% |
